In patent US20240000075A1, “FUNGICIDAL ARYL AMIDINES” (CORTEVA AGRISCIENCE LLC, priority 2020, published 2024):
Where two headings read alike, the source gives them in different places.

How the values were obtained:
Puccinia triticina = assay: Wheat brown rust, whole-plant fungicidal activity (PUCCRT); type: in vivo, Puccinia triticina on wheat plants (variety 'Yuma'); details: 24 h, 1DP (1 day protectant), read-out: % Disease Control Rating PUCCRT
Description: Technical grades of materials were dissolved in acetone, which were then mixed with nine volumes of water (H2O) containing 110 ppm Triton X-100. The fungicide solutions were applied onto wheat seedlings using an automated booth sprayer to run-off. All sprayed plants were allowed to air dry prior to further handling. All fungicides were evaluated using the aforementioned method for their activity vs. all target diseases, unless stated otherwise.
Example B: Evaluation of Fungicidal Activity: Wheat Brown Rust (Puccinia triticina; Synonym: Puccinia recondita f sp. tritici; Bayer Code PUCCRT)
Wheat plants (variety ‘Yuma’) were grown from seed in a greenhouse in soil-less potting mix until the first leaf was fully emerged, with 7-10 seedlings per pot. These plants were inoculated with an aqueous spore suspension of Puccinia triticina after fungicide treatments. After inoculation, the plants were kept in a dark dew room with 100% relative humidity overnight to permit spores to germinate and infect the leaf. The plants were then transferred to a greenhouse for disease to develop. Fungicide formulation, application and disease assessment followed the procedures as described in Example A.

Phakopsora pachyrhizi = assay: Asian soybean rust, whole-plant fungicidal activity (PHAKPA); type: in vivo; details: read-out: % Disease Control Rating PHAKPA
Description: Example C: Evaluation of Fungicidal Activity: Asian Soybean Rust (Phakopsora pachyrhizi; Bayer Code […]) Technical grades of materials were dissolved in acetone, which were then mixed with nine volumes of H2O containing 0.011% Tween-20. The fungicide solutions were applied onto soybean seedlings using an automated booth sprayer to run-off. All sprayed plants were allowed to air dry prior to further handling. Soybean plants (variety 'Williams 82') were grown in soil-less potting mix, with one plant per pot. Ten-day-old seedlings were used for testing. Plants were inoculated as described in Example A. Plants were incubated for 24 h in a dark dew room with 100% relative humidity then transferred to a growth room for disease to develop. Fungicide formulation and application were made as described in Example A. When disease symptoms were fully expressed, disease severity was assessed on the sprayed leaves on a scale of 0 to 100 percent. Percent disease control was calculated using the ratio of disease severity on treated plants relative to untreated plants.

Zymoseptoria tritici = assay: Septoria leaf blotch of wheat, whole-plant fungicidal activity (SEPTTR); type: in vivo, Zymoseptoria tritici on wheat plants (variety 'Yuma'); details: read-out: % Disease Control Rating SEPTTR
Description: Example A: Evaluation of Fungicidal Activity: Septoria Leaf Blotch of Wheat (Zymoseptoria tritici; Bayer Code […]) Technical grades of materials were dissolved in acetone, which were then mixed with nine volumes of water (H2O) containing 110 ppm Triton X-100. The fungicide solutions were applied onto wheat seedlings using an automated booth sprayer to run-off. All sprayed plants were allowed to air dry prior to further handling. All fungicides were evaluated using the aforementioned method for their activity vs. all target diseases, unless stated otherwise. Wheat plants (variety 'Yuma') were grown from seed in a greenhouse in soil-less potting mix until the first leaf was fully emerged, with 7-10 seedlings per pot. These plants were inoculated with an aqueous spore suspension of Zymoseptoria tritici either 3 days prior to fungicide treatment (3 day curative; 3DC) or 1 day after fungicide treatment (1 day protectant; 1DP). After inoculation the plants were kept in 100% relative humidity for three days to permit spores to germinate and infect the leaf. The plants were then transferred to a greenhouse for disease to develop. When disease symptoms were fully expressed on the 1st leaves of untreated plants, infection levels were assessed on a scale of 0 to 100 percent disease severity. Percent disease control was calculated using the ratio of disease severity on treated plants relative to untreated plants.

Rhynchosporium commune = assay: Leaf blotch of barley, whole-plant fungicidal activity (RHYNSE); type: in vivo; details: 24 h, 1DP (1 day protectant), read-out: % Disease Control Rating RHYNSE
Description: Technical grades of materials were dissolved in acetone, which were then mixed with nine volumes of water (H2O) containing 110 ppm Triton X-100. The fungicide solutions were applied onto wheat seedlings using an automated booth sprayer to run-off. All sprayed plants were allowed to air dry prior to further handling. All fungicides were evaluated using the aforementioned method for their activity vs. all target diseases, unless stated otherwise. Example D: Evaluation of Fungicidal Activity: Leaf Blotch of Barley (Rhynchosporium commune; Bayer Code […]) Barley plants (variety 'Harrington') were grown from seed in a greenhouse in soil-less potting mix until the first leaf was fully emerged, with 7-10 seedlings per pot. These plants were inoculated with an aqueous spore suspension of Rhynchosporium commune after fungicide treatments. After inoculation, the plants were kept in a dark dew room with 100% relative humidity for two days to permit spores to germinate and infect the leaf. The plants were then transferred to a greenhouse for disease to develop. Fungicide formulation and application were made as described in Example A. Disease assessment was conducted as described in Example A.

| Compound | pest or weed control at 200 ppm (Puccinia triticina) [%] | pest or weed control at 200 ppm (Phakopsora pachyrhizi; 24 h, 1DP (1 day protectant)) [%] | pest or weed control at 200 ppm (Phakopsora pachyrhizi; 72 h, 3DC (3 day curative)) [%] | pest or weed control at 200 ppm (Zymoseptoria tritici; 24 h, 1DP (1 day protectant)) [%] | pest or weed control at 200 ppm (Zymoseptoria tritici; 72 h, 3DC (3 day curative)) [%] | pest or weed control at 200 ppm (Rhynchosporium commune) [%] |
| --- | --- | --- | --- | --- | --- | --- |
| Cc1cc(C(=O)CC2CCCCC2)c(C)cc1/N=C/N(C)C [Compound 57] | > 85 | > 85 | > 85 | 50 to 85 | < 20 | < 20 |
| CCN(/C=N/c1cc(C)c(C(=O)CC2CCCCC2)cc1C)CC [Compound 58] | > 85 | > 85 | > 85 | 50 to 85 | < 20 | < 20 |
| Cc1cc(C(=O)CC2CCCCC2)c(C)cc1/N=C/N(C)C(C)C [Compound 59] | > 85 | > 85 | > 85 | > 85 | > 85 | > 85 |
| Cc1cc(C(=O)CC2CCCCC2)c(C)cc1/N=C/N(C)C1CC1 [Compound 60] | > 85 | < 20 | < 20 | < 20 | < 20 | < 20 |
| CCN(C)/C(S)=N/c1cc(C)c(C(=O)CC2CCCCC2)cc1C [Compound 61] | > 85 | > 85 | > 85 | > 85 | < 20 | > 85 |
| CCN(C)/C=N/c1cc(C)c(C(=O)Cc2ccc(C)cc2C)cc1C [Compound 62] | > 85 | > 85 | 20 to 50 | > 85 | 50 to 85 | > 85 |
| CCN(C)/C=N/c1cc(C)c(C(=O)Cc2ccc(C(F)(F)F)cc2)cc1C [Compound 63] | > 85 | > 85 | > 85 | > 85 | 20 to 50 | > 85 |
| CCCc1ccc(CC(=O)c2cc(C)c(/N=C/N(C)CC)cc2C)cc1 [Compound 64] | > 85 | > 85 | > 85 | 50 to 85 | < 20 | > 85 |
| CCN(C)/C=N/c1cc(C)c(C(=O)Cc2ccc(SC(F)(F)F)cc2)cc1C [Compound 65] | > 85 | > 85 | > 85 | > 85 | 20 to 50 | > 85 |
| CCN(C)/C=N/c1cc(C)c(C(=O)Cc2ccc(C(C)C)cc2)cc1C [Compound 66] | > 85 | > 85 | > 85 | > 85 | < 20 | > 85 |
| CCN(C)/C=N/c1cc(C)c(C(=O)Cc2ccc(C(C)(C)C)cc2)cc1C [Compound 67] | > 85 | > 85 | > 85 | > 85 | < 20 | > 85 |
| CCN(C)/C=N/c1cc(C)c(C(=O)Cc2ccc(F)cc2)cc1C [Compound 68] | > 85 | > 85 | > 85 | > 85 | < 20 | > 85 |
| CCN(C)/C=N/c1cc(C)c(C(=O)Cc2ccc(Cl)cc2)cc1C [Compound 69] | > 85 | > 85 | > 85 | 50 to 85 | 50 to 85 | 50 to 85 |
| CCc1cccc(CC(=O)c2cc(C)c(/N=C/N(C)CC)cc2C)c1 [Compound 70] | > 85 | > 85 | > 85 | 50 to 85 | < 20 | > 85 |
| CCN(C)/C=N/c1cc(C)c(C(=O)Cc2ccc3c(c2)CCC3)cc1C [Compound 71] | > 85 | > 85 | > 85 | 20 to 50 | < 20 | > 85 |
| CCN(C)/C=N/c1cc(OC)c(C(=O)CC2CCCCC2)cc1C [Compound 72] | > 85 | > 85 | > 85 | < 20 | < 20 | < 20 |
| Cc1cc(C(=O)CC2CCCC2)c(C)cc1/N=C/N(C)C [Compound 73, (E)-N′-(4-(2-cyclopentylacetyl)-2,5-dimethylphenyl)-N,N-dimethylformimidamide] | > 85 | > 85 | > 85 | < 20 | < 20 | < 20 |
| CCN(C)/C=N/c1cc(C)c(C(=O)CC2CCCC2)cc1OC [Compound 74] | > 85 | > 85 | > 85 | < 20 | < 20 | 50 to 85 |
| CCN(C)/C=N/c1ccc(C(=O)CC2CCCC2)cc1C [Compound 75] | > 85 | 20 to 50 | > 85 | < 20 | < 20 | < 20 |
| Cc1cc(C(=O)Cc2c(F)cc(F)cc2F)c(C)cc1/N=C/N(C)C [Compound 76] | > 85 | > 85 | – | < 20 | < 20 | < 20 |
| CCN(/C=N/c1cc(C)c(C(=O)CC2CCCC2)cc1C)CC [Compound 77] | > 85 | > 85 | > 85 | < 20 | < 20 | 20 to 50 |
| CCN(/C=N/c1cc(C)c(C(=O)Cc2c(F)cc(F)cc2F)cc1C)CC [Compound 78] | > 85 | > 85 | > 85 | < 20 | < 20 | < 20 |
| Cc1cc(C(=O)Cc2c(F)cc(F)cc2F)c(C)cc1/N=C/N(C)C(C)C [Compound 79] | > 85 | > 85 | – | < 20 | < 20 | 50 to 85 |
